From patent US11684603B2, “Neuraminidase inhibition to improve glycocalyx volume and function to ameliorate cardiovascular diseases in pathologies associated with glycocalyx damage” (priority 2017, dated 2023)

Tests used:
human endothelial cells = assay: Wheat Germ Agglutinin (WGA) staining of the glycocalyx of cultured human endothelial cells; type: cell-based; settings: neuraminidase plus Zanamivir for 1 hour
isolated aortas = assay: Atomic force microscopy of aortic endothelial stiffness in treated db/db mice; type: in vivo; settings: 5 mg twice a day via inhalation for 5 days, vs vehicle
Description: (§1) Data represent mean+/−SEM, *P<0.05, determined by two-tailed Student t test.

femoral arteries [1] = assay: Flow mediated dilation in isolated femoral arteries from treated db/db mice; type: in vivo; settings: 5 mg twice a day via inhalation for 5 days, vs placebo control; increasing shear stress
Description: Vessels were pre-constricted with phenylephrine and exposed to increasing shear stress (dynes/cm^2) to assess flow mediated dilation. […] Data represent mean+/−SEM, *P<0.05, determined by two-tailed Student t test.

femoral arteries [2] = assay: Vasodilation of pre-constricted femoral arteries from treated db/db mice to insulin, acetylcholine or sodium nitroprusside; type: in vivo; settings: 5 mg twice a day via inhalation for 5 days, vs vehicle cohort
Description: In a separate set of experiments, vessels were pre-constricted and exposed to increasing concentrations of insulin (FIG. 8C) or endothelium-dependent vasodilator, acetylcholine (FIG. 8D). […] Data represent mean+/−SEM, *P<0.05, determined by two-tailed Student t test.
as §1

glycocalyx = settings: patients with familial hypercholesterolemia, short term treatment; cited from earlier work

Row | SMILES | effect on the neuraminidase-induced reduction in WGA staining (human endothelial cells) | aortic endothelial stiffness (isolated aortas) | flow mediated dilation (femoral arteries [1]) | endothelial dependent vasodilatory response to acetylcholine (femoral arteries [2]; increasing concentrations of acetylcholine) | endothelial dependent vasodilatory response to insulin (femoral arteries [2]; increasing concentrations of insulin) | glycocalyx volume (glycocalyx) | plasma hyaluronidase activity (glycocalyx)
1 | CC(=O)NC1C(NC(=N)N)C=C(C(=O)O)OC1C(O)C(O)CO (stereo not shown) [Zanamivir, 5-acetamido-4-guanidino-6-(1,2,3-trihydroxypropyl)-5,6-dihydro-4H-pyran-2-carboxylic acid] | attenuated | significant reduction | significantly improved | greater | greater | – | –
2 | CC(C)c1nc(N(C)S(C)(=O)=O)nc(-c2ccc(F)cc2)c1/C=C/[C@@H](O)C[C@@H](O)CC(=O)O [Rosuvastatin] | – | – | – | – | – | partially restored glycocalyx volume | increase in plasma hyaluronidase activity
